Measured values from patent US10064800B2, “Transglutaminase activator” (Kao Corporation, priority 2012, dated 2018).
Read-outs that look alike come from different tables or passages of the source.

Experiments:
transglutaminase = experiment: Measurement of transglutaminase activity in lysate of treated keratinocytes (Transglutaminase Colorimetric Microassay Kit); type: cell-based, human; conditions: for Transglutaminase activity: HEKn cells, 3 days, relative value, n = 3
[1] = system: Normal human epidermal keratinocytes NHEK(F); experiment: Verification of ceramide production enhancing effect (TLC of cell lipids); type: cell-based; conditions: 3 days, 0.1 μM, relative value, 50 vol % ethanol = 1
Method: Normal human epidermal keratinocytes (trade name: NHEK(F), manufactured by Kurabo Industries, Ltd.) were cultured under the conditions of 37° C. and 5% CO2, in a culture medium (trade name: EpiLife-KG2, manufactured by Kurabo Industries, Ltd.) using a culture plate.
Thereafter, the culture medium was exchanged with EpiLife-KG2 without growth factors such as epidermal growth factor, and a dilution prepared from the extract from Justicia procumbens prepared in the Preparation Example 1-2, the concentration of which was adjusted to 1 w/v % in terms of solids content, […] Alternatively, the culture medium was exchanged with EpiLife-KG2 without growth factors such as epidermal growth factor, and a dilution prepared from the extract from Peristrophe japonica prepared in the Preparation Example 2-2, the concentration of which was adjusted to 1 w/v % in terms of solids content, was added to the culture fluid in an amount of 0.1%. […]
Further, 0.1 N NaOH and a 1% aqueous SDS solution were added to the cells from which lipids had been extracted, and the mixture was heated at 60° C. for 2 hours to thereby solubilize proteins. […] The amount of proteins was quantified by the BCA method. […]
A ceramide amount was measured using recovered cells in a manner similar to Test Example 2-1. […]

IVL gene = experiment: Evaluation of IVL gene expression (Real-time RT-PCR, HaCaT); type: cell-based, human; conditions: 24 hours, 0.01 μM, corrected by RPLPO, relative value, DMSO = 1
Method: Human epidermal keratinocyte line HaCaT was cultured in a culture medium in which 10% fetal calf serum inactivated, and 1% penicillin-streptomycin (manufactured by Gibco Laboratories) were added to DMEM (manufactured by Gibco Laboratories), under conditions of 37° C. and 5% CO2.
In a 6-well plate, HaCaT cells were seeded in an amount of 5×10^4 pieces/well, and cultured. On the following day, exchange was carried out for a culture medium containing the exemplified compound (18) at a final concentration shown in Table 10, and culture was further carried out for 24 hours. In place of the exemplified compound (18), as a control, exchange was carried out for a culture medium containing at a final concentration of 0.1% v/v DMSO being a solvent, and culture was further carried out for 24 hours, and thus the resultant cultured product was used. After 24 hours from addition of the exemplified compound (18), the cells were washed twice using PBS(−), and total RNA was extracted using RNeasy (registered trademark) Mini Kit (manufactured by QIAGEN). A concentration of total RNA was measured, and a fixed amount of total RNA was used as a template, and a reverse transcription reaction was carried out using High capacity RNA-to-cDNA Kit (trade name, manufactured by Applied Biosystems, Inc.).
IVL gene expression was quantitatively determined from the resultant cDNA by Real-time RT-PCR. […]

[2] = evaluated conc. 0.1 μM, control DMSO = 1
[3] = evaluated conc. 1 μM, control DMSO = 1
[4] = evaluated conc. 0.01 μM, control DMSO = 1
[5] = fractions from Justicia procumbens extract, result in words

| Molecule | Transglutaminase activity (transglutaminase; [2]) | Transglutaminase activity (transglutaminase; [3]) | Transglutaminase activity (transglutaminase; [4]) | also measured |
| --- | --- | --- | --- | --- |
| O=C1OCc2cc3ccc4c(c3cc21)OCO4 [Exemplified compound (19), furo[3′,4′,6,7]naphtho[1,2-d]-1,3-dioxole-9(7H)-one] | 1.98 ± 0.83 | 2.37 ± 0.26 | – | – |
| O=C1OCc2cc3ccccc3c(-c3ccccc3)c21 [Exemplified compound (11), 9-phenylnaphtho[2,3-c]furan-1(3H)-one] | 1.29 ± 0.40 | 1.48 ± 0.22 | 1.10 ± 0.22 | – |
| COc1cc([C@@H]2c3cc4c(cc3C[C@H]3COC(=O)[C@@H]32)OCO4)cc(OC)c1OC [(2), reference compound] | – | 0.20 ± 0.18 | – | – |
| COc1cc2cc3c(c(-c4ccc5c(c4)OCO5)c2cc1OC)C(=O)OC3 [Exemplified compound (12), 6,7-dimethoxy-9-(1,3-benzodioxol-5-yl)naphtho[2,3-c]furan-1(3H)-one] | 2.80 ± 1.73 | – | 1.20 ± 0.16 | Ceramide amount (Average value in n = 2) [1]: 1.30; Transglutaminase activity of isolated HPLC fraction (transglutaminase; [5]): confirmed to exist |
| CCOc1c2c(c(-c3ccc4c(c3)OCO4)c3cc(OC)c(OC)cc13)C(=O)OC2 [Exemplified compound (15), 4-ethoxy-6,7-dimethoxy-9-(1,3-benzodioxol-5-yl)naphtho[2,3-c]furan-1(3H)-one] | 1.33 ± 0.39 | 1.66 ± 0.33 | 1.25 ± 0.22 | – |
| COc1cc2c(O)c3c(c(-c4ccc5c(c4)OCO5)c2cc1OC)C(=O)OC3 [Exemplified compound (13), 4-hydroxy-6,7-dimethoxy-9-(1,3-benzodioxol-5-yl)naphtho[2,3-c]furan-1(3H)-one] | 1.75 ± 0.61 | – | 1.95 ± 0.53 | – |
| COc1cc2c(OC)c3c(c(-c4cc5c(cc4O)OCO5)c2cc1OC)C(=O)OC3 [(4), reference compound] | 0.39 ± 0.10 | 0.22 ± 0.08 | 0.60 ± 0.28 | – |
| COc1c2c(c(-c3ccc4c(c3)OCO4)c3cc4c(cc13)OCO4)C(=O)OC2 [(3), reference compound] | 0.97 ± 0.43 | 0.70 ± 0.24 | 0.75 ± 0.49 | – |
| COc1cc([C@@H]2c3cc4c(c(OC)c3C[C@H]3COC(=O)[C@@H]32)OCO4)cc(OC)c1OC [(1), reference compound] | – | 0.24 ± 0.21 | – | – |
| [Ca+2].[Cl-].[Cl-] [Positive control (Ca^2+), CaCl2, reference compound] | – | – | – | Transglutaminase activity (transglutaminase; CaCl2 1.5 mM positive control, control = 1): 1.51 ± 0.20 |
| COc1cc2c(OC)c3c(c(-c4ccc5c(c4)OCO5)c2cc1OC)C(=O)OC3 [Exemplified compound (14), 4,6,7-trimethoxy-9-(1,3-benzodioxol-5-yl)naphtho[2,3-c]furan-1(3H)-one] | 2.42 ± 0.55 | 2.19 ± 0.98 | 1.22 ± 0.51 | Transglutaminase activity of isolated HPLC fraction (transglutaminase; [5]): confirmed to exist |
| Tuberculatin-5″-acetate [Exemplified compound (18)] | 2.78 ± 0.19 | 5.44 ± 0.19 | – | IVL gene amount (Average value in n = 2) (IVL gene): 1.32; Transglutaminase activity of isolated HPLC fraction (transglutaminase): confirmed to exist |
| COc1cc2c(OC(C)=O)c3c(c(-c4ccc5c(c4)OCO5)c2cc1OC)C(=O)OC3 [Exemplified compound (16), 4-acetoxy-6,7-dimethoxy-9-(1,3-benzodioxol-5-yl)naphtho[2,3-c]furan-1(3H)-one] | 1.46 ± 0.54 | 2.10 ± 0.86 | – | – |
